Results on 7 compounds are retold here after PubChem BioAssay (NCI).

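Five concentrations, 48 hours, 96-well plates. Abbreviation: GI50, concentration required for 50% inhibition of growth. TGI: total growth inhibition.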

Some test systems named below: SR leukemia; CCRF-CEM leukemia; LOX IMVI melanoma; COLO 205 colon; SK-OV-3 ovarian; SW-620 colon; KM12 colon; NCI-H23 lung; SK-MEL-5 melanoma; SN12C renal.
Assay in all cases: NCI-60 cell line screen, 48 h

For the compound `O=c1[nH]c2ccccc2n1-c1n[nH]c2ccccc12`, the GI50 was 18.1 µM in the test with SR leukemia; 15.2 µM in the test with CCRF-CEM leukemia; 17.4 µM with LOX IMVI melanoma; 28.7 µM in the test on COLO 205 colon; 73 µM with SK-OV-3 ovarian; 39.4 µM in the test on SW-620 colon. Besides, the GI50 in the test with KM12 colon was 3.21 µM; in the test on NCI-H23 lung, 38.5 µM; in the test on SK-MEL-5 melanoma, 16.9 µM; with SN12C renal, 37.2 µM. The TGI in the test with SR leukemia was 73.1 µM; with CCRF-CEM leukemia, > 100 µM; with LOX IMVI melanoma, 52.5 µM; with COLO 205 colon, > 100 µM; with SK-OV-3 ovarian it was > 100 µM; in the test on SW-620 colon, > 100 µM. In addition, the TGI is > 100 µM in the test with KM12 colon, > 100 µM in the test on NCI-H23 lung, 35.9 µM in the test with SK-MEL-5 melanoma and > 100 µM in the test with SN12C renal.
On to `CC(=O)Oc1ccc(/C=N/NC(N)=S)nc1`, for which the GI50 was 1.51 µM in the test with SR leukemia; 2.58 µM with CCRF-CEM leukemia; 3.54 µM in the test on LOX IMVI melanoma; 31 µM in the test on COLO 205 colon; 17.8 µM in the test with SK-OV-3 ovarian; 5.59 µM in the test on SW-620 colon. In addition, the GI50 with KM12 colon is 4.82 µM; in the test with NCI-H23 lung, 2.39 µM; with SK-MEL-5 melanoma, 3.38 µM; with SN12C renal it was 4.06 µM. In addition, the TGI is > 100 µM in the test with SR leukemia; 9.43 µM in the test on CCRF-CEM leukemia; > 100 µM with LOX IMVI melanoma; > 100 µM in the test on COLO 205 colon; > 100 µM in the test with SK-OV-3 ovarian; > 100 µM with SW-620 colon. For the same compound, the TGI in the test with KM12 colon is > 100 µM; with NCI-H23 lung it was > 100 µM; in the test on SK-MEL-5 melanoma, 23.4 µM; with SN12C renal, > 100 µM.
In the case of `Nc1ccc(S(=O)(=O)Nc2cnc3c(Cl)cccc3n2)cc1`, the GI50 was 23.1 µM with SR leukemia; > 20.2 µM in the test on LOX IMVI melanoma; > 74.3 µM in the test on COLO 205 colon; 52.3 µM in the test with SW-620 colon; 99.6 µM in the test on KM12 colon; > 82.4 µM with NCI-H23 lung. The GI50 in the test with SN12C renal is > 81.5 µM. Moreover, the TGI was > 750 µM with SR leukemia; > 657 µM in the test on CCRF-CEM leukemia; > 736 µM with LOX IMVI melanoma; 193 µM with COLO 205 colon; 163 µM in the test on SK-OV-3 ovarian; > 678 µM with SW-620 colon. Moreover, the TGI was 709 µM in the test on KM12 colon, 549 µM with NCI-H23 lung, > 627 µM with SK-MEL-5 melanoma and > 750 µM with SN12C renal.
On to `Cc1c(C(=O)CSc2nc3ccccc3[nH]2)c(=O)n(-c2ccccc2)n1C`, for which the TGI in the test on SR leukemia, in the test on CCRF-CEM leukemia, in the test on LOX IMVI melanoma, in the test with COLO 205 colon, with SK-OV-3 ovarian and in the test with SW-620 colon was > 100 µM each time. Further, the TGI with KM12 colon, in the test on NCI-H23 lung, in the test on SK-MEL-5 melanoma and in the test on SN12C renal was > 100 µM throughout.
Take `CCOC(=O)C(NC(=O)c1[nH]cnc1/N=N/N(C)C)C(C)C` (configuration not stated): the TGI with SR leukemia, in the test with CCRF-CEM leukemia, in the test with LOX IMVI melanoma, with COLO 205 colon, in the test on SK-OV-3 ovarian and in the test with SW-620 colon was > 100 µM each time. Further, the TGI with KM12 colon, in the test with NCI-H23 lung, with SK-MEL-5 melanoma and with SN12C renal was > 100 µM each time.
Take `COc1cccc(/C=C/C(=O)c2cc3c(N)c(C(=O)Nc4cccc5ccccc45)sc3nc2C)c1`: the GI50 in the test on SR leukemia is 0.296 µM; in the test with CCRF-CEM leukemia, 0.256 µM; with LOX IMVI melanoma, 0.826 µM; with COLO 205 colon, 1.71 µM; in the test with SK-OV-3 ovarian it was 2.24 µM; with SW-620 colon, 0.538 µM. Besides, the GI50 with KM12 colon is 1.4 µM; with NCI-H23 lung, 1.96 µM; with SK-MEL-5 melanoma, 1.21 µM; with SN12C renal, 1.14 µM. Besides, the TGI was > 50 µM in the test with SR leukemia; > 50 µM in the test on CCRF-CEM leukemia; 1.69 µM with LOX IMVI melanoma; 34.2 µM with COLO 205 colon; > 50 µM in the test with SK-OV-3 ovarian; 3.1 µM in the test on SW-620 colon. Further, the TGI is 4.77 µM in the test with KM12 colon, > 50 µM in the test with NCI-H23 lung, 3.09 µM in the test with SK-MEL-5 melanoma and 2.98 µM in the test on SN12C renal.
For the compound `CC1CCC2N(C1)CC1C3(O)CC45OC6(O)C(O)CCC4(C)C6CCC5C3(O)CC(O)C1(O)C2(C)O` (configuration not stated), the TGI in the test with SR leukemia, in the test on CCRF-CEM leukemia, with LOX IMVI melanoma, with COLO 205 colon, in the test with SK-OV-3 ovarian and in the test on SW-620 colon was > 100 µM each time. For the same compound, the TGI in the test with KM12 colon, with NCI-H23 lung, with SK-MEL-5 melanoma and in the test on SN12C renal was > 100 µM throughout.
